target: T1, CYP3A4 (Homo sapiens, UniProt P08684); assay: Cytochrome P450 inhibition assay (midazolam hydroxylation); assay type: in vitro ADME; details: human, human liver microsomes, probe midazolam (hydroxylation to 1′-hydroxymidazolam), 10 μM test compound, midazolam at approximately its Km
T1 construct: pre-incubated with human liver microsomes and NADPH; from tissue; host or cells: human liver microsomes
Description: Compounds were tested for the potential to induce drug-drug interactions by inhibition of the cytochrome P450 3A4 isoform. The assay evaluated the metabolism of a specific marker substrate (CYP3A4, midazolam hydroxylation to 1′-hydroxymidazolam) in the presence or absence of 10 μM test compound. The concentration of the marker substrate was approximately its Km (Dixit et al., Biopharm. Drug Dispos. 2007, 28(5), 257-262). A specific inhibitor for the isoform was included in each run to validate the system. An appropriate positive control inhibitor was used. Mechanism-based inhibition was investigated where warranted using a classical method. To evaluate time-dependent inhibition, parallel samples may have been included where […] was pre-incubated with human liver microsomes and NADPH for 30 min prior to the addition of the P450 substrate. The percent inhibition of the pre-incubated and non-pre-incubated samples were compared as a preliminary evaluation of time-dependent inhibition.

T1 sequence (P08684 whole entry): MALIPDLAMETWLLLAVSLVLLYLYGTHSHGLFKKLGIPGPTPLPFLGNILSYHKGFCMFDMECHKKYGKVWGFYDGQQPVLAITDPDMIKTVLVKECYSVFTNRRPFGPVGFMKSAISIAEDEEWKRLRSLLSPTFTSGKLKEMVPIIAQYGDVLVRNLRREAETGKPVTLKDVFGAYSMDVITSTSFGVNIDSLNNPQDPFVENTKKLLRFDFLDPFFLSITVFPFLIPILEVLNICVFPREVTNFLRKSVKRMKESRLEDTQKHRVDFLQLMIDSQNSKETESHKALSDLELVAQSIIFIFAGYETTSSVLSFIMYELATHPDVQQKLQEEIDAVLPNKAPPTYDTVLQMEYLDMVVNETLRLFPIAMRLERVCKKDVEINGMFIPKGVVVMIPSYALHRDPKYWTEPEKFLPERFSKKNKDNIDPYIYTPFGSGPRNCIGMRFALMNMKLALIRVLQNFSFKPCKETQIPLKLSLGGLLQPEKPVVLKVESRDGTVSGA

Compound	inhibition at 10 µM
Cc1ccc(-n2nccn2)c(C(=O)N2CCC[C@@H](C)[C@H]2CNc2ncccc2C#N)c1 [Example A90, 2-((((2S,3R)-3-Methyl-1-(5-methyl-2-(2H-1,2,3-triazol-2-yl)benzoyl)piperidin-2-yl)methyl)amino)nicotinonitrile]	33%
Cc1ccc(-c2cnn(C)c2)c(C(=O)N2CCC[C@@H](C)[C@H]2CNc2ncc(F)cc2F)c1 [Example A96, ((2S,3R)-2-(((3,5-Difluoropyridin-2-yl)amino)methyl)-3-methylpiperidin-1-yl)(5-methyl-2-(1-methyl-1H-pyrazol-4-yl)phenyl)methanone]	92%
Cc1ccc(-c2cnn(C)c2)c(C(=O)N2CCC[C@@H](C)[C@H]2CNc2ncc(Cl)cc2F)c1 [Example A97, ((2S,3R)-2-(((5-Chloro-3-fluoropyridin-2-yl)amino)methyl)-3-methylpiperidin-1-yl)(5-methyl-2-(1-methyl-1H-pyrazol-4-yl)phenyl)methanone]	98%
COc1cccnc1NC[C@@H]1[C@H](C)CCCN1C(=O)c1cc(C)ccc1-c1cnn(C)c1 [Example A101, ((2S,3R)-2-(((3-Methoxypyridin-2-yl)amino)methyl)-3-methylpiperidin-1-yl)(5-methyl-2-(1-methyl-1H-pyrazol-4-yl)phenyl)methanone]	83%
Cc1ccc(-c2cnn(C)c2)c(C(=O)N2CCC[C@@H](C)[C@H]2CNc2ccc(Cl)cn2)c1 [Example A105, ((2S,3R)-2-(((5-Chloropyridin-2-yl)amino)methyl)-3-methylpiperidin-1-yl)(5-methyl-2-(1-methyl-1H-pyrazol-4-yl)phenyl)methanone]	96%
Cc1ccc(-n2ccc(C)n2)c(C(=O)N2CCC[C@@H](C)[C@H]2CNc2ccc(C(F)(F)F)cn2)c1 [Example A108, ((2S,3R)-3-Methyl-2-(((5-(trifluoromethyl)pyridin-2-yl)amino)methyl)piperidin-1-yl)(5-methyl-2-(3-methyl-1H-pyrazol-1-yl)phenyl)methanone]	88%
Cc1ccc(-n2nccn2)c(C(=O)N2CCC[C@@H](C)[C@H]2CNc2nc(C)cs2)c1 [Example A124, ((2S,3R)-3-Methyl-2-(((4-methylthiazol-2-yl)amino)methyl)piperidin-1-yl)(5-methyl-2-(2H-1,2,3-triazol-2-yl)phenyl)methanone]	55%
COc1ccc(NC[C@@H]2[C@H](C)CCCN2C(=O)c2cc(C)ccc2-n2nccn2)nc1 [Example A126, ((2S,3R)-2-(((5-Methoxypyridin-2-yl)amino)methyl)-3-methylpiperidin-1-yl)(5-methyl-2-(2H-1,2,3-triazol-2-yl)phenyl)methanone]	56%
Cc1ccc(-c2ccccn2)c(C(=O)N2CCC[C@@H](C)[C@H]2CNc2nc3cc(F)ccc3o2)c1 [Example A128, ((2S,3R)-2-(((5-Fluorobenzo[d]oxazol-2-yl)amino)methyl)-3-methylpiperidin-1-yl)(5-methyl-2-(pyridin-2-yl)phenyl)methanone]	88%
Cc1ccc(-n2ccc(C)n2)c(C(=O)N2CCC[C@@H](C)[C@H]2CNc2ncc(C#N)cn2)c1 [Example A131, 2-((((2S,3R)-3-Methyl-1-(5-methyl-2-(3-methyl-1H-pyrazol-1-yl)benzoyl)piperidin-2-yl)methyl)amino)pyrimidine-5-carbonitrile]	84%
Cc1ccc(-n2nccn2)c(C(=O)N2CCC[C@@H](C)[C@H]2CNc2ccc(C3CC3)cn2)c1 [Example A136, ((2S,3R)-2-(((5-Cyclopropylpyridin-2-yl)amino)methyl)-3-methylpiperidin-1-yl)(5-methyl-2-(2H-1,2,3-triazol-2-yl)phenyl)methanone]	91%
Cc1ccc(-n2ncc(C)n2)c(C(=O)N2CCC[C@@H](C)[C@H]2CNc2nc3cc(F)ccc3o2)c1 [Example A141, ((2S,3R)-2-(((5-Fluorobenzo[d]oxazol-2-yl)amino)methyl)-3-methylpiperidin-1-yl)(5-methyl-2-(4-methyl-2H-1,2,3-triazol-2-yl)phenyl)methanone]	72%
Cc1ccc(-n2nccn2)c(C(=O)N2CCC[C@@H](C)[C@H]2CNc2ncc(Cl)cn2)c1 [Example A147, ((2S,3R)-2-(((5-Chloropyrimidin-2-yl)amino)methyl)-3-methylpiperidin-1-yl)(5-methyl-2-(2H-1,2,3-triazol-2-yl)phenyl)methanone]	66%
Cc1ccc(-n2cccn2)c(C(=O)N2CCC[C@@H](C)[C@H]2CNc2ccc(C#N)cn2)c1 [Example A155, 6-((((2S,3R)-3-Methyl-1-(5-methyl-2-(1H-pyrazol-1-yl)benzoyl)piperidin-2-yl)methyl)amino)nicotinonitrile]	72%
Cc1ccc(-n2cccn2)c(C(=O)N2CCC[C@@H](C)[C@H]2CNc2ccc(C(F)(F)F)nn2)n1 [Example A164, ((2S,3R)-3-Methyl-2-(((6-(trifluoromethyl)pyridazin-3-yl)amino)methyl)piperidin-1-yl)(6-methyl-3-(1H-pyrazol-1-yl)pyridin-2-yl)methanone]	37%
Cc1ccc(-n2cccn2)c(C(=O)N2CCC[C@@H](C)[C@H]2CNc2ncc(F)cn2)c1 [Example A170, ((2S,3R)-2-(((5-Fluoropyrimidin-2-yl)amino)methyl)-3-methylpiperidin-1-yl)(5-methyl-2-(1H-pyrazol-1-yl)phenyl)methanone]	66%
Cc1ccc(-n2nccn2)c(C(=O)N2CCC[C@@H](C)[C@H]2CNc2ncc(F)cc2F)c1 [Example A172, ((2S,3R)-2-(((3,5-Difluoropyridin-2-yl)amino)methyl)-3-methylpiperidin-1-yl)(5-methyl-2-(2H-1,2,3-triazol-2-yl)phenyl)methanone]	76%

Second part, the compound after the results:

inhibition at 10 µM	Compound
92%	Cc1ccc(-n2nccn2)c(C(=O)N2CCC[C@@H](C)[C@H]2CNc2cccc(C(F)(F)F)n2)c1 [Example A89, ((2S,3R)-3-Methyl-2-(((6-(trifluoromethyl)pyridin-2-yl)amino)methyl)piperidin-1-yl)(5-methyl-2-(2H-1,2,3-triazol-2-yl)phenyl)methanone]
99%	Cc1ccc(-c2cnn(C)c2)c(C(=O)N2CCC[C@@H](C)[C@H]2CNc2cccc(C(F)(F)F)n2)c1 [Example A94, ((2S,3R)-3-Methyl-2-(((6-(trifluoromethyl)pyridin-2-yl)amino)methyl)piperidin-1-yl)(5-methyl-2-(1-methyl-1H-pyrazol-4-yl)phenyl)methanone]
48%	Cc1ccc(-n2nccn2)c(C(=O)N2CCC[C@@H](C)[C@H]2CNc2nnc(C(F)(F)F)s2)c1 [Example A102, ((2S,3R)-3-Methyl-2-(((5-(trifluoromethyl)-1,3,4-thiadiazol-2-yl)amino)methyl)piperidin-1-yl)(5-methyl-2-(2H-1,2,3-triazol-2-yl)phenyl)methanone]
95%	Cc1ccc(-c2cnn(C)c2)c(C(=O)N2CCC[C@@H](C)[C@H]2CNc2nnc(C(F)(F)F)s2)c1 [Example A103, ((2S,3R)-3-Methyl-2-(((5-(trifluoromethyl)-1,3,4-thiadiazol-2-yl)amino)methyl)piperidin-1-yl)(5-methyl-2-(1-methyl-1H-pyrazol-4-yl)phenyl)methanone]
91%	Cc1ccc(-c2cccc(C)n2)c(C(=O)N2CCC[C@@H](C)[C@H]2CNc2ccc(C(F)(F)F)cn2)c1 [Example A104, ((2S,3R)-3-Methyl-2-(((5-(trifluoromethyl)pyridin-2-yl)amino)methyl)piperidin-1-yl)(5-methyl-2-(6-methylpyridin-2-yl)phenyl)methanone]
98%	Cc1ccc(-n2cc(C)nn2)c(C(=O)N2CCC[C@@H](C)[C@H]2CNc2ccc(C(F)(F)F)cn2)c1 [Example A113, ((2S,3R)-3-Methyl-2-(((5-(trifluoromethyl)pyridin-2-yl)amino)methyl)piperidin-1-yl)(5-methyl-2-(4-methyl-1H-1,2,3-triazol-1-yl)phenyl)methanone]
95%	Cc1ccc(-c2ccc(C)cc2C(=O)N2CCC[C@@H](C)[C@H]2CNc2ccc(C(F)(F)F)cn2)nc1 [Example A118, ((2S,3R)-3-Methyl-2-(((5-(trifluoromethyl)pyridin-2-yl)amino)methyl)piperidin-1-yl)(5-methyl-2-(5-methylpyridin-2-yl)phenyl)methanone]
86%	Cc1ccc(-c2ccccn2)c(C(=O)N2CCC[C@@H](C)[C@H]2CNc2nnc(C(F)(F)F)s2)c1 [Example A151, ((2S,3R)-3-Methyl-2-(((5-(trifluoromethyl)-1,3,4-thiadiazol-2-yl)amino)methyl)piperidin-1-yl)(5-methyl-2-(pyridin-2-yl)phenyl)methanone]
90%	Cc1ccc(-n2nccn2)c(C(=O)N2CCC[C@@H](C)[C@H]2CNc2nccc(C(F)(F)F)n2)c1 [Example A163, ((2S,3R)-3-Methyl-2-(((4-(trifluoromethyl)pyrimidin-2-yl)amino)methyl)piperidin-1-yl)(5-methyl-2-(2H-1,2,3-triazol-2-yl)phenyl)methanone]
42%	Cc1ccc(-c2ccccn2)c(C(=O)N2CCC[C@@H](C)[C@H]2CNc2ccc(C(F)(F)F)nn2)n1 [Example A165, ((2S,3R)-3-methyl-2-(((6-(trifluoromethyl)pyridazin-3-yl)amino)methyl)piperidin-1-yl)(6′-methyl-[2,3′-bipyridin]-2′-yl)methanone]

From patent US9440982B2 (Eolas Therapeutics, Inc., priority 2012, dated 2016)
